# Laboratory results published in patent US20230233569A1 (Revolution Medicines, Inc., priority 2020, published 2023).
# Like-named read-outs stand apart in the source and are kept apart here.
# Key:
# [1] = tested on: Capan-1 (K-Ras G12V); assay: CellTiter-Glo cell viability assay, 5-day treatment; format: cell-based; details: Homo sapiens, CAPAN-1, 120 h
# Procedure, shortened: (§1)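 Luminescence read-out after 5 days of compound exposure, with plates first brought to room temperature for roughly 30 minutes. Values are percent of averaged DMSO wells, fitted by four-parameter logistic regression.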
# [2] = tested on: NCI-H358 (K-Ras G12C); assay: as above; format: cell-based; details: Homo sapiens, NCI-H358, 120 h, 5-day treatment; read-out: H358 Cell Viability assay data (K-Ras G12C, IC50)
# Procedure, shortened: as §1
# [3] = biological target: KRAS G12C (Homo sapiens, UniProt P01116+P62937, G12C); assay: Disruption of BRAF RBD interaction with Ras (FRET / MOA assay, with Cyclophilin A); format: biochemical; details: read-out: KRAS G12C FRET data, IC50
# Chain of KRAS G12C (P01116 1-169 isoform P01116-2 G12C): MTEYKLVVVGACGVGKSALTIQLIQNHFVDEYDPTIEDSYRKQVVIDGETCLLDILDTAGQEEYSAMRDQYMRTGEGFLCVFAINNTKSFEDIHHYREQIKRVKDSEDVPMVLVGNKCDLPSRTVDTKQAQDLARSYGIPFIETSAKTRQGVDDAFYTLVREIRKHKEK
# Chain of KRAS G12C (P62937 whole entry): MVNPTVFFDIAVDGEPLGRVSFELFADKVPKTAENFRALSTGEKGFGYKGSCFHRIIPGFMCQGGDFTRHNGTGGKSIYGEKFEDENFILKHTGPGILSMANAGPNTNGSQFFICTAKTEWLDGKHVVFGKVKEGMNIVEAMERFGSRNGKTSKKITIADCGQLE
# Procedure, shortened: (§2)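 IC50 values reflect loss of K-Ras binding to BRAF RBD, read as a lowered TR-FRET ratio compared with DMSO, driven by compound-mediated K-Ras:Cyclophilin A complex formation. Compound top dose 30 μM final, 3-fold steps, 3 h incubation at 25 °C before a 1.5 h antibody step.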
# [4] = biological target: KRAS G12V (Homo sapiens, UniProt P01116+P62937, G12V); assay: as above; format: biochemical; details: KRAS G12V; read-out: KRAS G12V FRET data IC50
# Chain of KRAS G12V (P01116 1-169 isoform P01116-2 G12V limits assumed): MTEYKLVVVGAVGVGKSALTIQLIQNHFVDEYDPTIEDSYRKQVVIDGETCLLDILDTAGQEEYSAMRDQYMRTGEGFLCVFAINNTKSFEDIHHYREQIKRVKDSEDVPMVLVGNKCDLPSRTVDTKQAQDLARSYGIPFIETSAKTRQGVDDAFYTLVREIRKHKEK
# Chain of KRAS G12V (P62937 whole entry): as the sequence (P62937 whole entry) above
# Procedure, shortened: as §2
# [5] = biological target: KRAS WT (Homo sapiens, UniProt P01116+P62937); assay: as above; format: biochemical; details: KRAS WT; read-out: KRAS WT FRET data IC50
# Chain of KRAS WT (P01116 1-169 isoform P01116-2 limits assumed): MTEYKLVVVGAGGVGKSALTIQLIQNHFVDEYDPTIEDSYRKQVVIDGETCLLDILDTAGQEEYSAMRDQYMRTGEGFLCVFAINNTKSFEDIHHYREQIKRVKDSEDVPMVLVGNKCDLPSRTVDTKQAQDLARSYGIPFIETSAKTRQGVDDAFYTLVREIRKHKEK
# Chain of KRAS WT (P62937 whole entry): as the sequence (P62937 whole entry) above
# Procedure, shortened: as §2
# [6] = biological target: KRAS G13D (Homo sapiens, UniProt P01116+P62937, G13D); assay: as above; format: biochemical; details: KRAS G13D; read-out: KRAS G13D FRET data IC50
# Chain of KRAS G13D (P01116 1-169 isoform P01116-2 G13D limits assumed): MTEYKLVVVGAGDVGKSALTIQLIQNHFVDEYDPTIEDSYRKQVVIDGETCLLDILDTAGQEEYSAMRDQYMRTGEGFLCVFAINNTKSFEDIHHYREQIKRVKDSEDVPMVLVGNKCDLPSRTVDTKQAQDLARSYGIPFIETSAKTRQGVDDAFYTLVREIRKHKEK
# Chain of KRAS G13D (P62937 whole entry): as the sequence (P62937 whole entry) above
# Procedure, shortened: as §2
# [7] = biological target: KRAS G13C (Homo sapiens, UniProt P01116+P62937, G13C); assay: as above; format: biochemical; details: read-out: KRAS G13C FRET data, IC50
# Chain of KRAS G13C (P01116 1-169 isoform P01116-2 G13C): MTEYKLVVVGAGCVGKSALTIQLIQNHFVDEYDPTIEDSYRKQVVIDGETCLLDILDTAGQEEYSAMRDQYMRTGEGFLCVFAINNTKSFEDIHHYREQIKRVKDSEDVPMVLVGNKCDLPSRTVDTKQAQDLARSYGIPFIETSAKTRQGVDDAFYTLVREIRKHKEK
# Chain of KRAS G13C (P62937 whole entry): as the sequence (P62937 whole entry) above
# Procedure, shortened: as §2
# [8] = biological target: KRAS G12D (Homo sapiens, UniProt P01116+P62937, G12D); assay: as above; format: biochemical; details: read-out: KRAS G12D FRET data, IC50
# Chain of KRAS G12D (P01116 1-169 isoform P01116-2 G12D limits assumed): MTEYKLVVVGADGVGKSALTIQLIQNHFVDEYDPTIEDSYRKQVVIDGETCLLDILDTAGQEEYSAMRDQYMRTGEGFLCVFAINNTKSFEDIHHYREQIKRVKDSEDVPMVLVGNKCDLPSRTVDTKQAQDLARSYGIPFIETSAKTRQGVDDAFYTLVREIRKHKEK
# Chain of KRAS G12D (P62937 whole entry): as the sequence (P62937 whole entry) above
# Procedure, shortened: as §2
# [9] = biological target: NRAS G12C (Homo sapiens, UniProt P01111+P62937, G12C); assay: as above; format: biochemical; details: NRAS G12C; read-out: NRAS G12C FRET data IC50
# Chain of NRAS G12C (P01111 whole entry G12C): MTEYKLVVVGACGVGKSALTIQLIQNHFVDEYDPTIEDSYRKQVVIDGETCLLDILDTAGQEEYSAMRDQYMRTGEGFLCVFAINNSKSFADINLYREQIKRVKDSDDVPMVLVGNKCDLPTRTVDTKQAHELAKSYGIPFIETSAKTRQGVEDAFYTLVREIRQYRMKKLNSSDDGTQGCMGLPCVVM
# Chain of NRAS G12C (P62937 whole entry): as the sequence (P62937 whole entry) above
# [10] = biological target: KRAS G12S (Homo sapiens, UniProt P01116+P62937, G12S); assay: as above; format: biochemical; details: read-out: KRAS G12S FRET data, IC50
# Chain of KRAS G12S (P01116 1-169 isoform P01116-2 G12S limits assumed): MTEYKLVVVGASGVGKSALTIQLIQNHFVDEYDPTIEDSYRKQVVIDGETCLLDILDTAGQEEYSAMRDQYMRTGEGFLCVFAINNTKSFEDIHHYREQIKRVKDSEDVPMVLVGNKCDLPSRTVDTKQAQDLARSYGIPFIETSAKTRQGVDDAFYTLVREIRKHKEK
# Chain of KRAS G12S (P62937 whole entry): as the sequence (P62937 whole entry) above
# Procedure, shortened: as §2
# [11] = biological target: NRAS Q61K (Homo sapiens, UniProt P01111+P62937, Q61K); assay: as above; format: biochemical; details: NRAS Q61K; read-out: NRAS Q61K FRET data IC50
# Chain of NRAS Q61K (P01111 whole entry Q61K): as the sequence (P01111 whole entry G12C) above, with C12G, Q61K counted along it
# Chain of NRAS Q61K (P62937 whole entry): as the sequence (P62937 whole entry) above
# Procedure, shortened: (§3)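 TR-FRET in 25 mM HEPES pH 7.3, 100 mM NaCl, 5 mM MgCl2, 0.1% BSA: 25 μM Cyclophilin A, 12.5 nM His6-Ras-GMPPNP, 50 nM GST-BRAF RBD with compound (10-point 3-fold series from 30 μM), 3 h at 25° C. Anti-His Eu/anti-GST APC added, 1.5 h more; IC50 from decreased FRET ratio versus DMSO.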
# [12] = biological target: NRAS WT (Homo sapiens, UniProt P01111+P62937); assay: as above; format: biochemical; details: NRAS WT; read-out: NRAS WT FRET data IC50
# Chain of NRAS WT (P01111 whole entry): as the sequence (P01111 whole entry G12C) above, with C12G counted along it
# Chain of NRAS WT (P62937 whole entry): as the sequence (P62937 whole entry) above
# Procedure, shortened: as §3
# [13] = biological target: KRAS Q61H (Homo sapiens, UniProt P01116+P62937, Q61H); assay: as above; format: biochemical; details: KRAS Q61H; read-out: KRAS Q61H FRET data IC50
# Chain of KRAS Q61H (P01116 1-169 isoform P01116-2 Q61H limits assumed): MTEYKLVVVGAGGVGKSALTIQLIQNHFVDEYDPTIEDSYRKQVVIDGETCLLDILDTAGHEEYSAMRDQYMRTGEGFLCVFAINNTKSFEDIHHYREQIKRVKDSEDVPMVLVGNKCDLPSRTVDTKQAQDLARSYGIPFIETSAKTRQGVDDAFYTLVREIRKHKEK
# Chain of KRAS Q61H (P62937 whole entry): as the sequence (P62937 whole entry) above
# Procedure, shortened: as §3
# [14] = biological target: NRAS Q61R (Homo sapiens, UniProt P01111+P62937, Q61R); assay: as above; format: biochemical; details: NRAS Q61R; read-out: NRAS Q61R FRET data IC50
# Chain of NRAS Q61R (P01111 whole entry Q61R): as the sequence (P01111 whole entry G12C) above, with C12G, Q61R counted along it
# Chain of NRAS Q61R (P62937 whole entry): as the sequence (P62937 whole entry) above
# Procedure, shortened: as §3
# [15] = 5-day treatment, read-out: Capan-1 Cell Viability assay data (K-Ras G12V, IC50)
SMILES,IC50 [2] [nM],IC50 [3] [nM],IC50 [4] [nM],IC50 [5] [nM],IC50 [6] [nM],IC50 [7] [nM],IC50 [8] [nM],IC50 [9] [nM],IC50 [10] [nM],IC50 [11] [nM],IC50 [12] [nM],IC50 [13] [nM],IC50 [14] [nM],"IC50 ([1]; read-out: Capan-1 Cell Viability assay data (K-Ras G12V, IC50, uM)) [µM]","IC50 [1, 15] [µM]"
CCn1c(-c2cccnc2[C@H](C)OC)c2c3cc(ccc31)-c1csc(n1)C[C@H](NC(=O)[C@H](C(C)C)N(C)C(=O)[C@@H]1CCN(C)[C@@H]1c1ccccc1)C(=O)N1CCC[C@H](N1)C(=O)OCC(C)(C)C2 [Example A464],1000 to 10000,1000 to 10000,1000 to 10000,1000 to 10000,1000 to 10000,1000 to 10000,1000 to 10000,1000 to 10000,1000 to 10000,1000 to 10000,1000 to 10000,100 to 1000,1000 to 10000,1 to 10,
CCn1c(-c2cccnc2[C@H](C)OC)c2c3cc(ccc31)-c1csc(n1)C[C@H](NC(=O)[C@H](C(C)C)N(C)C(=O)N1C[C@H]3CN(C)C[C@H]31)C(=O)N1CCC[C@H](N1)C(=O)OCC(C)(C)C2 [Example A497],100 to 1000,100 to 1000,1000 to 10000,1000 to 10000,1000 to 10000,100 to 1000,1000 to 10000,100 to 1000,1000 to 10000,100 to 1000,100 to 1000,100 to 1000,1000 to 10000,,0.1 to 1
CCn1c(-c2cccnc2[C@H](C)OC)c2c3cc(ccc31)-c1csc(n1)C[C@H](NC(=O)[C@H](C(C)C)N(C)C(=O)N1CC(N(C)C)C1)C(=O)N1CCC[C@H](N1)C(=O)OCC(C)(C)C2 (racemic) [Example A170],10 to 100,100 to 1000,100 to 1000,100 to 1000,100 to 1000,100 to 1000,1000 to 10000,100 to 1000,100 to 1000,10 to 100,100 to 1000,100 to 1000,100 to 1000,,0.01 to 0.1
CCn1c(-c2cccnc2[C@H](C)OC)c2c3cc(ccc31)-c1csc(n1)C[C@H](NC(=O)[C@H](C(C)C)N(C)C(=O)N1CCC13CCN(C)CC3)C(=O)N1CCC[C@H](N1)C(=O)OCC(C)(C)C2 [Example A273],10 to 100,10 to 100,100 to 1000,100 to 1000,100 to 1000,100 to 1000,100 to 1000,10 to 100,10 to 100,100 to 1000,10 to 100,10 to 100,100 to 1000,,0.1 to 1
CCn1c(-c2cccnc2[C@H](C)OC)c2c3cc(ccc31)-c1csc(n1)C[C@H](NC(=O)C1(F)COC1)C(=O)N1CCC[C@H](N1)C(=O)OCC(C)(C)C2 [Example A320],1000 to 10000,100 to 1000,100 to 1000,100 to 1000,1000 to 10000,100 to 1000,1000 to 10000,100 to 1000,100 to 1000,100 to 1000,100 to 1000,100 to 1000,1000 to 10000,,0.1 to 1

# Continued, in another order:
IC50 [2] [nM],IC50 [3] [nM],IC50 [4] [nM],IC50 [5] [nM],IC50 [6] [nM],IC50 [7] [nM],IC50 [8] [nM],IC50 [9] [nM],IC50 [10] [nM],IC50 [11] [nM],IC50 [12] [nM],IC50 [13] [nM],IC50 [14] [nM],SMILES,"IC50 ([1]; read-out: Capan-1 Cell Viability assay data (K-Ras G12V, IC50, uM)) [µM]","IC50 [1, 15] [µM]"
100 to 1000,10 to 100,100 to 1000,100 to 1000,100 to 1000,10 to 100,1000 to 10000,100 to 1000,100 to 1000,100 to 1000,100 to 1000,10 to 100,100 to 1000,CCn1c(-c2cccnc2[C@H](C)OC)c2c3cc(ccc31)-c1cc(O)cc(c1)C[C@H](NC(=O)[C@H](C(C)C)N(C)C(=O)C1CCc3ccccc3N1)C(=O)N1CCC[C@H](N1)C(=O)OCC(C)(C)C2 (stereo partly drawn) [Example A226],,0.1 to 1
100 to 1000,100 to 1000,100 to 1000,100 to 1000,100 to 1000,100 to 1000,100 to 1000,100 to 1000,100 to 1000,10 to 100,100 to 1000,100 to 1000,100 to 1000,"CCn1c(-c2cccnc2[C@H](C)OC)c2c3cc(ccc31)-c1csc(n1)C[C@H](NC(=O)[C@H](C(C)C)N(C)C(=O)N1C[C@H](OC)[C@@H](N)C1)C(=O)N1CCC[C@H](N1)C(=O)OCC(C)(C)C2 (atropisomer, axis not shown) [Example A580]",,0.1 to 1
100 to 1000,100 to 1000,100 to 1000,10 to 100,100 to 1000,100 to 1000,100 to 1000,100 to 1000,100 to 1000,100 to 1000,10 to 100,10 to 100,100 to 1000,CCn1c(-c2cccnc2[C@H](C)OC)c2c3cc(ccc31)-c1cc(O)cc(c1)C[C@H](NC(=O)[C@H](C(C)C)N(C)C(=O)[C@H]1C[C@@H]1C)C(=O)N1CCC[C@H](N1)C(=O)OCC(C)(C)C2 [Example A287],,0.1 to 1
< 10,10 to 100,10 to 100,10 to 100,100 to 1000,100 to 1000,100 to 1000,10 to 100,100 to 1000,10 to 100,10 to 100,10 to 100,10 to 100,"CCn1c(-c2cccnc2[C@H](C)OC)c2c3cc(ccc31)-c1csc(n1)C[C@H](NC(=O)[C@H](C(C)C)N(C)C(=O)N1CC([C@@H](C)CO)C1)C(=O)N1CCC[C@H](N1)C(=O)OCC(C)(C)C2 (single isomer, unassigned) [Example A487]",,0.01 to 0.1
10 to 100,10 to 100,100 to 1000,100 to 1000,100 to 1000,100 to 1000,100 to 1000,10 to 100,100 to 1000,10 to 100,100 to 1000,10 to 100,100 to 1000,"CCn1c(-c2cccnc2[C@H](C)OC)c2c3cc(ccc31)-c1csc(n1)C[C@H](NC(=O)[C@H](C(C)C)N(C)C(=O)N1CC3(CC3)C1)C(=O)N1CCC[C@H](N1)C(=O)OCC(C)(C)C2 (atropisomer, axis not shown) [Example A523]",,0.01 to 0.1
10 to 100,100 to 1000,100 to 1000,100 to 1000,100 to 1000,100 to 1000,100 to 1000,100 to 1000,100 to 1000,100 to 1000,100 to 1000,100 to 1000,100 to 1000,CCn1c(-c2cccnc2[C@H](C)OC)c2c3cc(ccc31)-c1csc(n1)C[C@H](NC(=O)[C@H](C(C)C)N(C)C(=O)N1CC[C@H](N(C)C)C1)C(=O)N1CCC[C@H](N1)C(=O)OCC(C)(C)C2 [Example A603],,0.01 to 0.1
10 to 100,10 to 100,100 to 1000,100 to 1000,100 to 1000,100 to 1000,100 to 1000,10 to 100,100 to 1000,10 to 100,100 to 1000,10 to 100,100 to 1000,"CCn1c(-c2cccnc2[C@H](C)OC)c2c3cc(ccc31)-c1csc(n1)C[C@H](NC(=O)[C@H](C(C)C)N(C)C(=O)N1CC([C@@H](C)NC)C1)C(=O)N1CCC[C@H](N1)C(=O)OCC(C)(C)C2 (atropisomer, axis not shown) [Example A488]",,0.1 to 1
